# Assay results published in patent US20240376411A1, “IMPROVED PERFUME COMPOSITIONS COMPRISING SULFUR-CONTAINING PRO-FRAGRANCE COMPOUNDS” (FIRMENICH SA, priority 2021, published 2024).
# Assay: logP above 4 (octanol-water partition coefficient)
# Settings: Yes/No
row,Compound,logP > 4
1,"Cc1ccc2c(c1)CC(C)(CO)C2 (racemic) [(+/−)-2,5-dimethyl-2,3-dihydro-1H-inden-2-yl)methanol]",No
2,"C=CC(C)(CCC=C(C)C)OC(C)=O (racemic) [(+/−)-1,5-dimethyl-1-vinyl-4-hexenyl acetate]",Yes
3,"CCC(=O)OCC(C)(C)O[C@@H](C)[C@@H]1CCCC(C)(C)C1 [(+)-2-{(1S)-1-[(1R)-3,3-dimethylcyclohexyl]ethoxy}-2-methylpropyl propionate]",Yes
4,3-methyl-4/5-cyclopentadecen-1-one,Yes
5,CC(=O)CCc1ccc(O)cc1 [4-(4-hydroxyphenyl)-2-butanone],No
6,CC(=O)c1ccc2ccccc2c1 [1-(2-naphthyl)ethanone],No
7,CC/C=C\CCOC(=O)c1ccccc1O [(3Z)-3-hexen-1-yl salicylate],Yes
8,"tricyclo[5.2.1.0^2,6]dec-3/4-en-8-yl propanoate",Yes
9,CCC(O)COC1CCCCC1C(C)(C)C (racemic) [(+/−)-1-(2-tert-butyl-1-cyclohexyloxy)-2-butanol],Yes
10,"CC(=O)C1(C)CC2=C(CCCC2(C)C)CC1C (stereo not shown) [1-(octahydro-2,3,8,8-tetramethyl-2-naphtalenyl)-1-ethanone]",Yes
11,OCCc1ccccc1 [2-phenylethanol],No
12,c1ccc2[nH]ccc2c1 [Indole],No
13,"CC1=CC[C@H](/C=C/C(C)(C)C(C)O)C1(C)C (stereo partly drawn) [(4E)-3,3-dimethyl-5-[(1R)-2,2,3-trimethyl-3-cyclopenten-1-yl]-4-penten-2-ol]",Yes
14,"CC1(C)CCC[C@]2(C)[C@H]3CCO[C@]3(C)CC[C@@H]12 (racemic) [(3aRS,5aSR,9aSR,9bRS)-3a,6,6,9a-tetramethyldodecahydronaphtho[2,1-b]furan]",Yes
15,CCOc1ccc2ccccc2c1 [2-ethoxynaphthalene],No

# Now from value to compound:
row,logP > 4,Compound
1,No,"CCCCC[C@H]1C(=O)CC[C@@H]1CC(=O)OC (racemic) [methyl 2-((1RS,2RS)-3-oxo-2-pentylcyclopentyl)acetate]"
2,No,"C=CC(C)(O)CCC=C(C)C (racemic) [(+/−)-3,7-dimethyl-1,6-octadien-3-ol]"
3,Yes,"CCC(=CCC1CC=C(C)C1(C)C)CO (racemic) [(+/−)-2-ethyl-4-(2,2,3-trimethyl-3-cyclopenten-1-yl)-2-buten-1-ol]"
4,No,"CC(C)=CCC[C@@H](C)CC#N [(−)-(R)-3,7-dimethyl-6-octenenitrile]"
5,No,CC1=CCC(C(C)(C)O)CC1 (racemic) [(+/−)-alpha-terpineol]
6,No,"C=CC(C)CCCC(C)(C)O (racemic) [(+−)-2,6-dimethyl-7-octen-2-ol]"
7,No,"CCC(C)(O)CCCC(C)C (racemic) [(+/−)-3,7-dimethyl-3-octanol]"
8,No,N#CC(=C1CCCCC1)c1ccccc1 [cyclohexylidene(phenyl)acetonitrile]
9,Yes,C=CCOC(=O)CCC1CCCCC1 [allyl 3-cyclohexylpropanoate]
10,No,CC(CO)c1ccccc1 (racemic) [(+/−)-2-phenyl-1-propanol]
